In patent publication US6583306B1, “Methods of asymmetrically synthesizing enantiomers of Casodex, its derivatives and intermediates thereof” (priority 1999, dated 2003):
Where two headings read alike, the source gives them in different places.

Test system: testosterone response
Assay: Biological data comparing pure enantiomers of Casodex (bicalutamide) with the racemic mixture: reduction of the testosterone response
Format: cell-based
Excerpt: The data for dihydrotestosterone are EC50 values. The rest of the data are IC50 values, since the assay is measuring the amount of compound it takes to reduce the testosterone response 50%.

[1] = Experiment 1, amount of compound it takes to reduce the testosterone response 50%, read-out: IC50, Experiment 1
[2] = Experiment 2, amount of compound it takes to reduce the testosterone response 50%, read-out: IC50, Experiment 2

SMILES | IC50 [1] | IC50 [2] | further results
CC(O)(CS(=O)(=O)c1ccc(F)cc1)C(=O)Nc1ccc(C#N)c(C(F)(F)F)c1 (racemic) [Racemate, N-[4-cyano-3-(trifluoromethyl)phenyl]-3-[(4-fluorophenyl)sulfonyl]-2-hydroxy-2-methyl-propanamide,(+−)] |  |  | IC50 (read-out: IC50, Experiment 1): 900 nM; IC50 (read-out: IC50, Experiment 2): 1000 nM
CC(O)(CS(=O)(=O)c1ccc(F)cc1)C(=O)Nc1ccc(C#N)c(C(F)(F)F)c1 [(R), N-(4cyano-3-trifluoromethyl-phenyl)-3-(4-fluoro-phenylsulfonyl)2-hydroxy-2-methyl-propionamide] | 374 nM | 359 nM | 
C[C@@](O)(CS(=O)(=O)c1ccc(F)cc1)C(=O)Nc1ccc(C#N)c(C(F)(F)F)c1 [(S)] | 7700 nM | 11000 nM | 
C[C@]12CCC(=O)C[C@@H]1CC[C@@H]1[C@@H]2CC[C@]2(C)[C@@H](O)CC[C@@H]12 [DHT (Standard), dihydrotestosterone] |  |  | EC50 (read-out: EC50, Experiment 1): 0.18 nM; EC50 (read-out: EC50, Experiment 2): 0.18 nM
CC(C)(O)C(=O)Nc1ccc([N+](=O)[O-])c(C(F)(F)F)c1 [OH Flut. (Standard)] | 19 nM | 41 nM | 
